Assays:
MER kinase = MER kinase (Homo sapiens (Human), UniProt Q12866); assay: Assay of small molecular compounds for inhibiting the activity of MER kinase (LANCE TR-FRET); assay type: biochemical
Summary of the method: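 MER kinase preincubated 5 min at RT with compound (11 points, 0.042-2500 nM final), then ULight-poly GT and ATP added (4× stocks 200 nM and 20 μM) for 60 min at RT, 1% DMSO. Phosphorylation detected by LANCE TR-FRET; IC50 from % inhibition versus controls.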

VEGFR-2 kinase = VEGFR-2 kinase (Homo sapiens (Human), UniProt P35968); assay: Assay of small molecular compounds for inhibiting the activity of VEGFR-2 kinase (LANCE TR-FRET); assay type: biochemical; details: read-out: VEGFR2 IC50
Chain of VEGFR-2 kinase (P35968 20-1356): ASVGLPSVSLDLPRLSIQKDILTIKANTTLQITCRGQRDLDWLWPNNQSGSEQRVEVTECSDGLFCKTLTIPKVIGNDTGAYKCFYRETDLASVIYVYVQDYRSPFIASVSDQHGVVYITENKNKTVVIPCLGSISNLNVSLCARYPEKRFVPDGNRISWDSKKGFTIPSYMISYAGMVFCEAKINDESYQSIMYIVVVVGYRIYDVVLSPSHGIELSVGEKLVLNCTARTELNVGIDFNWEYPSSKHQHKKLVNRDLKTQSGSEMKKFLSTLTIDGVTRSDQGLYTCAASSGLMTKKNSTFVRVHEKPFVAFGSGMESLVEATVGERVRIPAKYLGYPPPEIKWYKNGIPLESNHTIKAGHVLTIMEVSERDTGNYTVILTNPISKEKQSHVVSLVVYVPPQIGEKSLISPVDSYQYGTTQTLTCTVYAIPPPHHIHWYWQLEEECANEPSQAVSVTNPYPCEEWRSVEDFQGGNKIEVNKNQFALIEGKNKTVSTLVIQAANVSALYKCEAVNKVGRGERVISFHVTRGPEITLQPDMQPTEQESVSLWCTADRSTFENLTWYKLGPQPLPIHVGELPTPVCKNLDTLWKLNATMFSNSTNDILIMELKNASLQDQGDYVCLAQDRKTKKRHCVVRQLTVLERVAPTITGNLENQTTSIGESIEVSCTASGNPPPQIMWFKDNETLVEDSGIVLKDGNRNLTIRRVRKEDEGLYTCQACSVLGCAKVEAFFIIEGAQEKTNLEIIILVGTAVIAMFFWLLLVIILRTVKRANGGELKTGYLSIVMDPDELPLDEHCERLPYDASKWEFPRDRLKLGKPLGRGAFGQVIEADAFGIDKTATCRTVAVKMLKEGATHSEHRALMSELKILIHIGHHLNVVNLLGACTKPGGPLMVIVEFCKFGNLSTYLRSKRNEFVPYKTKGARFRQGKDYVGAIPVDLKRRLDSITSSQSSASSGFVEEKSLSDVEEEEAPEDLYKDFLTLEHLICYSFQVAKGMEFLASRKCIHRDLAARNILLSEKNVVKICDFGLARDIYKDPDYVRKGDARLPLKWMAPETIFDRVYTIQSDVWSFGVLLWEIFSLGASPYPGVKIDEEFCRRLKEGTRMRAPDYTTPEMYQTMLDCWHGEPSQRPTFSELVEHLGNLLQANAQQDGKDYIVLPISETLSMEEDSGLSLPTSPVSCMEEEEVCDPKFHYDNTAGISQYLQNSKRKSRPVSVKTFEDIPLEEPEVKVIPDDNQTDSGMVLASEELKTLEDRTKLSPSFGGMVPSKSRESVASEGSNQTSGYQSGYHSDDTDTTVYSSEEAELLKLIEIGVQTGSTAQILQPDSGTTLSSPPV
Summary of the method: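 LANCE TR-FRET with human VEGFR-2 (2× stock 0.5 nM) preincubated 30 min with compound (final 2500 to 0.042 nM, 11-point 3-fold), then ULight-JAK-1 (Tyr1023) peptide/ATP added (4× stocks 200 nM/40 μM). Reaction 60 min room temperature, 4% DMSO; IC50 from inhibition-rate curve.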

Ba/F3 LMNA-NTRK1 cells = assay: Assay for inhibiting the proliferation of Ba/F3 LMNA-NTRK1 cells (CCK-8); assay type: cell-based; details: Mus musculus, BaF3
Summary of the method: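 Cells were seeded and cultured overnight, then treated with graded compound concentrations (final DMSO 0.25%) for 72 h. CCK-8 was added for 1–2 h at 37 °C and OD450 read. Survival was normalised to untreated and cell-free blank wells, and IC50 was fitted.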

Chain of MER kinase (Q12866 21-999): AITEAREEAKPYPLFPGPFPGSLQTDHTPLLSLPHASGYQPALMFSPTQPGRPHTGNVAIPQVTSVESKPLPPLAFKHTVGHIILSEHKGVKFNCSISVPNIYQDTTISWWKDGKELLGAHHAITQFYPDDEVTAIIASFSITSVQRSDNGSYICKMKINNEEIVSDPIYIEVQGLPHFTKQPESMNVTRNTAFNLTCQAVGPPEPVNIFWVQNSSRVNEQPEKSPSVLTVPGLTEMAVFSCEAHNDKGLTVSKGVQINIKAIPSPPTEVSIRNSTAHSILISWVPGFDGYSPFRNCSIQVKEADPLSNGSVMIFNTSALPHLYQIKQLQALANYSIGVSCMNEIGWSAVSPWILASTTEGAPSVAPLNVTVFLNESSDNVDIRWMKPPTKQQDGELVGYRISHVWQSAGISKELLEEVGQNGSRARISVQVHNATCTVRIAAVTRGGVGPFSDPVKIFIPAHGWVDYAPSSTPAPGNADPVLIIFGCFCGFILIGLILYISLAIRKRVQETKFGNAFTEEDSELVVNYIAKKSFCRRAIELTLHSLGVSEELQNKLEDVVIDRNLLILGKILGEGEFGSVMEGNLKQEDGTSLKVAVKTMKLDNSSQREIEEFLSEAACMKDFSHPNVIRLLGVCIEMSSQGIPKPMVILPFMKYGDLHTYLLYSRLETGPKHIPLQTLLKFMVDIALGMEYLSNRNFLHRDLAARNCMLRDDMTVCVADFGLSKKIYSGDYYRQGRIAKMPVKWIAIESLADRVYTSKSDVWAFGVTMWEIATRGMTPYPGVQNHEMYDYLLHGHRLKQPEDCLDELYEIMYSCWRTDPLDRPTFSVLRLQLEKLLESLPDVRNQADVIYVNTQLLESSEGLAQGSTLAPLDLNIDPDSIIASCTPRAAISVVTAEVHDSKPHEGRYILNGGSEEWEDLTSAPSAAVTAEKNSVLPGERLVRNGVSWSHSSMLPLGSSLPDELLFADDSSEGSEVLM

Row | SMILES | IC50 (MER kinase) | IC50 (VEGFR-2 kinase) | IC50 (Ba/F3 LMNA-NTRK1 cells)
1 | COc1cc2ncnc(Oc3ccc(NC(=O)c4cccn(-c5ccc(F)cc5)c4=O)cc3F)c2c2c1OCCO2 [Example 1, N-(3-fluoro-4-((5-methoxy-2,3-dihydro-[1,4]dioxino[2,3-f]quinazolin-10-yl)oxy)phenyl)-1-(4-fluorophenyl)-2-oxo-1,2-dihydropyridine-3-carboxamide] | ≤ 50 nM | ≤ 50 nM | –
2 | COc1cc2ncnc(Oc3ccc(NC(=O)c4c(OC)ccn(-c5ccc(F)cc5)c4=O)cc3F)c2c2c1OCCO2 [Example 2, N-(3-fluoro-4-((5-methoxy-2,3-dihydro-[1,4]dioxino[2,3-f]quinazolin-10-yl)oxy)phenyl)-1-(4-fluorophenyl)-4-methoxy-2-oxo-1,2-dihydropyridine-3-carboxamide] | ≤ 50 nM | 50 to 500 nM | –
3 | CCOc1ccn(-c2ccc(F)cc2)c(=O)c1C(=O)Nc1ccc(Oc2ncnc3cc(OC)c4c(c23)OCCO4)c(F)c1 [Example 3, N-(3-fluoro-4-((5-methoxy-2,3-dihydro-[1,4]dioxino[2,3-f]quinazolin-10-yl)oxy)phenyl)-1-(4-fluorophenyl)-4-ethoxy-2-oxo-1,2-dihydropyridine-3-carboxamide] | ≤ 50 nM | 50 to 500 nM | –
4 | COc1cn(-c2ccc(F)cc2C)nc1C(=O)Nc1ccc(Oc2ncnc3cc(OCCCN4CCOCC4)c4c(c23)OCCO4)c(F)c1 [Example 11, 1-(4-fluoro-2-methylphenyl)-N-(3-fluoro-4-((5-(3-morpholinopropoxy)-2,3-dihydro-[1,4]dioxino[2,3-f]quinazolin-10-yl)oxy)phenyl)-4-methoxy-1H-pyrazole-3-carboxamide] | 50 to 500 nM | 50 to 500 nM | –
5 | CCOc1cn(-c2ccc(F)cc2C)nc1C(=O)Nc1ccc(Oc2ncnc3cc(OCCCN4CCOCC4)c4c(c23)OCCO4)c(F)c1 [Example 12, 1-(4-fluoro-2-methylphenyl)-N-(3-fluoro-4-((5-(3-morpholinopropoxy)-2,3-dihydro-[1,4]dioxino[2,3-f]quinazolin-10-yl)oxy)phenyl)-4-ethoxy-1H-pyrazole-3-carboxamide] | 50 to 500 nM | 500 to 5000 nM | –
6 | COCCOc1cc2nccc(Oc3ccc(NC(=O)c4cn(C(C)C)c(=O)n(-c5ccc(F)cc5)c4=O)cc3F)c2c2c1OCCO2 [Example 43, N-(3-fluoro-4-((5-(2-methoxyethoxy)-2,3-dihydro-[1,4]dioxino[2,3-f]quinolin-10-yl)oxy)phenyl)-3-(4-fluorophenyl)-1-isopropyl-2,4-dioxo-1,2,3,4-tetrahydropyrimidine-5-carboxamide] | ≤ 50 nM | – | < 50 nM
7 | CCn1cc(C(=O)Nc2ccc(Oc3ccnc4cc(OCCOC)c5c(c34)OCCO5)c(F)c2)c(=O)n(-c2ccc(F)cc2)c1=O [Example 44, N-(3-fluoro-4-((5-(2-methoxyethoxy)-2,3-dihydro-[1,4]dioxino[2,3-f]quinolin-10-yl)oxy)phenyl)-3-(4-fluorophenyl)-1-ethyl-2,4-dioxo-1,2,3,4-tetrahydropyrimidine-5-carboxamide] | ≤ 50 nM | 50 to 500 nM | < 50 nM
8 | COc1cc2nccc(Oc3ccc(NC(=O)c4cn(CCO)c(=O)n(-c5ccc(F)cc5)c4=O)cc3F)c2c2c1OCCO2 [Example 45, N-(3-fluoro-4-((5-methoxy-2,3-dihydro-[1,4]dioxino[2,3-f]quinolin-10-yl)oxy)phenyl)-3-(4-fluorophenyl)-1-(2-hydroxyethyl)-2,4-dioxo-1,2,3,4-tetrahydropyrimidine-5-carboxamide] | ≤ 50 nM | 500 to 5000 nM | –
9 | COCCn1cc(C(=O)Nc2ccc(Oc3ccnc4cc(OC)c5c(c34)OCCO5)c(F)c2)c(=O)n(-c2ccc(F)cc2)c1=O [Example 46, N-(3-fluoro-4-((5-methoxy-2,3-dihydro-[1,4]dioxino[2,3-f]quinolin-10-yl)oxy)phenyl)-3-(4-fluorophenyl)-1-(2-methoxyethyl)-2,4-dioxo-1,2,3,4-tetrahydropyrimidine-5-carboxamide] | ≤ 50 nM | 500 to 5000 nM | < 50 nM
10 | CCOc1ccn(-c2ccc(F)cc2)c(=O)c1C(=O)Nc1ccc(Oc2ccnc3cc(OCCCN4CCN(C)CC4)c4c(c23)OCCO4)c(F)c1 [Example 49, N-(3-fluoro-4-((5-(3-(4-methylpiperazin-1-yl)propoxy)-2,3-dihydro-[1,4]dioxino[2,3-f]quinolin-10-yl)oxy)phenyl)-1-(4-fluorophenyl)-4-ethoxy-2-oxo-1,2-dihydropyridine-3-carboxamide] | ≤ 50 nM | ≤ 50 nM | < 50 nM
11 | CCOc1ccn(-c2ccc(F)cc2)c(=O)c1C(=O)Nc1ccc(Oc2ccnc3cc(OCCCN4CCN(C(C)=O)CC4)c4c(c23)OCCO4)c(F)c1 [Example 50, N-(4-((5-(3-(4-acetyl-piperazin-1-yl)propoxy)-2,3-dihydro-[1,4]dioxino[2,3-f]quinolin-10-yl)oxy)-3-fluorophenyl)-4-ethoxy-1-(4-fluorophenyl)-2-oxo-1,2-dihydropyridine-3-carboxamide] | ≤ 50 nM | ≤ 50 nM | < 50 nM
12 | CCOc1ccn(-c2ccc(F)cc2)c(=O)c1C(=O)Nc1ccc(Oc2ccnc3cc(OCCCN4CCS(=O)(=O)CC4)c4c(c23)OCCO4)c(F)c1 [Example 51, N-(4-((5-(3-(1,1-dioxidothiomorpholino)propoxy)-2,3-dihydro-[1,4]dioxino[2,3-f]quinolin-1 0-yl)oxy)-3-fluorophenyl)-4-ethoxy-1-(4-fluorophenyl)-2-oxo-1,2-dihydropyridine-3-carboxamide] | ≤ 50 nM | ≤ 50 nM | < 50 nM
13 | CCOc1ccn(-c2ccc(F)cc2)c(=O)c1C(=O)Nc1ccc(Oc2ccnc3cc(OCCCN4CCCC4)c4c(c23)OCCO4)c(F)c1 [Example 52, N-(4-((5-(3-(pyrrolidin-1-yl)propoxy)-2,3-dihydro-[1,4]dioxino[2,3-f]quinolin-10-yl)oxy)-3-fluorophenyl)-4-ethoxy-1-(4-fluorophenyl)-2-oxo-1,2-dihydropyridine-3-carboxamide] | ≤ 50 nM | ≤ 50 nM | < 50 nM
14 | CCOc1ccn(-c2ccc(F)cc2)c(=O)c1C(=O)Nc1ccc(Oc2ccnc3cc(OCCO)c4c(c23)OCCO4)c(F)c1 [Example 53, N-(4-((5-(2-hydroxyethoxy)-2,3-dihydro-[1,4]dioxino[2,3-f]quinolin-10-yl)oxy)-3-fluorophenyl)-4-ethoxy-1-(4-fluorophenyl)-2-oxo-1,2-dihydropyridine-3-carboxamide] | ≤ 50 nM | ≤ 50 nM | < 50 nM
15 | CCOc1ccn(-c2ccc(F)cc2)c(=O)c1C(=O)Nc1ccc(Oc2ccnc3cc(OCC(C)C)c4c(c23)OCCO4)c(F)c1 [Example 58, N-(4-((5-(isobutyloxy)-2,3-dihydro-[1,4]dioxino[2,3-f]quinolin-10-yl)oxy)-3-fluorophenyl)-4-ethoxy-1-(4-fluorophenyl)-2-oxo-1,2-dihydropyridine-3-carboxamide] | ≤ 50 nM | ≤ 50 nM | –
16 | CCOc1ccn(-c2ccc(F)cc2)c(=O)c1C(=O)Nc1ccc(Oc2ccnc3cc(OCC4CC4)c4c(c23)OCCO4)c(F)c1 [Example 59, N-(4-((5-(cyclopropylmethoxy)-2,3-dihydro-[1,4]dioxino[2,3-f]quinolin-10-yl)oxy)-3-fluorophenyl)-4-ethoxy-1-(4-fluorophenyl)-2-oxo-1,2-dihydropyridine-3-carboxamide] | ≤ 50 nM | ≤ 50 nM | –
17 | CCOc1ccn(-c2ccc(F)cc2)c(=O)c1C(=O)Nc1ccc(Oc2ccnc3cc(OC(C)C)c4c(c23)OCCO4)c(F)c1 [Example 63, N-(4-((5-isopropoxy-2,3-dihydro-[1,4]dioxino[2,3-f]quinolin-10-yl)oxy)-3-fluorophenyl)-4-ethoxy-1-(4-fluorophenyl)-2-oxo-1,2-dihydropyridine-3-carboxamide] | ≤ 50 nM | 50 to 500 nM | –
18 | CC(=O)N1CCN(CCCOc2cc3nccc(Oc4ccc(NC(=O)c5cn(C(C)C)c(=O)n(-c6ccc(F)cc6)c5=O)cc4F)c3c3c2OCCO3)CC1 [Example 75, N-(3-fluoro-4-((5-(3-(4-acetylpiperazin-1-yl)propoxy)-2,3-dihydro-[1,4]dioxino[2,3-f]quinolin-10-yl)oxy)phenyl)-3-(4-fluorophenyl)-1-isopropyl-2,4-dioxo-1,2,3,4-tetrahydropyrimidine-5-carboxamide] | ≤ 50 nM | – | < 50 nM
19 | CC(C)n1cc(C(=O)Nc2ccc(Oc3ccnc4cc(OCCCO)c5c(c34)OCCO5)c(F)c2)c(=O)n(-c2ccc(F)cc2)c1=O [Example 79, N-(3-fluoro-4-((5-(3-hydroxypropoxy)-2,3-dihydro-[1,4]dioxino[2,3-f]quinolin-10-yl)oxy)phenyl)-3-(4-fluorophenyl)-1-isopropyl-2,4-dioxo-1,2,3,4-tetrahydropyrimidine-5-carboxamide] | ≤ 50 nM | – | < 50 nM
20 | CC(C)Oc1cc2nccc(Oc3ccc(NC(=O)c4cn(C)c(=O)n(-c5ccc(F)cc5)c4=O)cc3F)c2c2c1OCCO2 [Example 88, N-(3-fluoro-4-((5-isopropoxy-2,3-dihydro-[1,4]dioxino[2,3-f]quinolin-10-yl)oxy)phenyl)-3-(4-fluorophenyl)-1-methyl-2,4-dioxo-1,2,3,4-tetrahydropyrimidine-5-carboxamide] | ≤ 50 nM | 500 to 5000 nM | –

— patent US12202835B2, “Substituted aromatic ring-linked dioxinoquinazolines and dioxinoquinolines as kinase inhibitors” (BEIJING SCITECH-MQ PHARMACEUTICALS LIMITED, priority 2018, dated 2025)
